In patent US12527779B2, “Prostaglandin E2 (PGE2) EP4 receptor antagonists” (Domain Therapeutics, priority 2019, dated 2026):
Where a name gives a salt, the structure may show the parent alone.

What follows are molecules tested against T1, human EP4 (hEP4) receptor (Homo sapiens, UniProt P35408) (assay: In vitro human EP4 functional antagonist activity using BRET biosensors (cAMP EPAC biosensor, TCS2510 stimulation)). Conditions: antagonist activity vs EC60 TCS2510, hEP4 in HEK-293 T cells.
T1 construct: expressed in transfected cells; host or cells: HEK-293 T cells, transient co-transfection with polyethylenimine
T1 sequence (P35408 whole entry): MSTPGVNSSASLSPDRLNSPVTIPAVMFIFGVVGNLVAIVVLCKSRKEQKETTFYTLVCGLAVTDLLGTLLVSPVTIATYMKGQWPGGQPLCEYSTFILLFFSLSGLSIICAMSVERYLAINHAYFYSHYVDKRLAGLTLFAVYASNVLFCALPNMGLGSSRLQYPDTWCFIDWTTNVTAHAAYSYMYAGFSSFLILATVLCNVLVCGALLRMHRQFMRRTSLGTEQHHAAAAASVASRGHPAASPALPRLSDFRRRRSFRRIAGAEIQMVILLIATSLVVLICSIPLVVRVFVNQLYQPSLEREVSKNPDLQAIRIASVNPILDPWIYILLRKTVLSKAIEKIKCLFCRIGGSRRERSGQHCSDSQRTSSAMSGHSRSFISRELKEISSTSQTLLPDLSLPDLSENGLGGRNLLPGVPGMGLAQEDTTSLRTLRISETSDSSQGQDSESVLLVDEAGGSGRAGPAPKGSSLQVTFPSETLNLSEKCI
Type: cell-based
Experimental: Examples of the present invention were tested successively for their agonist and antagonist activities on human EP4 (hEP4) receptor transiently over-expressed in HEK-293 T cells. […] The assay used to measure compound activity is based on the BRET technology. The unimolecular cAMP biosensor used to detect intracellular cAMP levels following GPCR stimulation consists of the EPAC protein fused to N- and C-terminal of Luciferase and GFP respectively.
Cell Culture and Transfection: HEK-293 T cells are maintained in Dulbecco's Modified Eagle's Medium supplemented with 10% Foetal Calf Serum, 1% Penicillin/Streptomycin at 37° C./5% CO2. Cells are co-transfected using polyethylenimine (25 kDa linear) with two DNA plasmids encoding hEP4, EPAC fused to luciferase (BRET donor) and to GFP (BRET acceptor). After transfection, cells are cultured (40,000 cells per well) for 48 h at 37° C./5% CO2.
BRET assay: Receptor activity is detected by changes in BRET signal. On the day of the assay, cells are rinsed and incubated in assay buffer (1.8 mM CaCl2, 1 mM MgCl2, 2.7 mM KCl, 137 mM NaCl, 0.4 mM NaH2PO4, 5.5 mM D-Glucose, 11.9 mM NaHCO3, 25 mM Hepes). Then, plates are equilibrated 1 h at 22° C. before adding compounds. Compounds and luciferase substrate are added to the cells using an automated device (Freedom Evo®, Tecan) and BRET readings are collected on EnVision (PerkinElmer) with specific filters (410 nm BW 80 nm, 515 nm BW 30 nm). Agonist and antagonist activities of compounds are consecutively evaluated on the same cell plate. Agonist activity is first measured after 5 min incubation with compound alone on the cells. Then, cells are stimulated by an EC60 TCS2510 concentration and luminescence is recorded for additional 10 min. EC60 TCS2510 concentration is the concentration giving 60% of the maximal TCS2510 response. Agonist or antagonist activities are evaluated in comparison to basal signals evoked by assay buffer or EC60 TCS2510 alone, respectively.
For IC50 determination, a dose-response test is performed using 10 concentrations (ranging over 4.5 logs) of each compound. Dose-response curves are fitted using the sigmoidal dose-response (variable slope) analysis in GraphPad Prism software (GraphPad Software) and IC50 of antagonist activity is calculated. Dose-response experiments are performed in duplicate, in two independent experiments. IC50 values are categorized as following: A: IC50<0.1 μM; B: IC50<1 μM.

SMILES | IC50 [µM]
C[C@H](NC(=O)C1(NCCOc2cccc(Cl)c2)CCCC1)C12CC(C(=O)O)(C1)C2 [Example 64, 3-[(1S)-1-[[1-[2-(3-Chlorophenoxy)ethylamino]cyclopentanecarbonyl]amino]ethyl]bicyclo[1.1.1]pentane-1-carboxylic acid, hydrochloride] | < 1
C[C@H](NC(=O)C1(NCCOc2ccccc2)CCC(F)(F)CC1)c1ccc(C(=O)O)cc1 [Example 65, 4-[(1S)-1-[[4,4-Difluoro-1-(2-phenoxyethylamino)cyclohexanecarbonyl]amino]ethyl]benzoic acid, hydrochloride] | < 1
C[C@H](NC(=O)C1(NCCOc2ccccc2)CCSCC1)c1ccc(C(=O)O)cc1 [Example 66, 4-[(1S)-1-[[4-(2-Phenoxyethylamino)tetrahydrothiopyran-4-carbonyl]amino]ethyl]benzoic acid] | < 0.1
C[C@H](NC(=O)C1(NCCOc2ccccc2)CC2(CCC2)C1)c1ccc(C(=O)O)cc1 [Example 68, 4-[(1S)-1-[[2-(2-Phenoxyethylamino)spiro[3.3]heptane-2-carbonyl]amino]ethyl]benzoic acid, hydrochloride] | < 1
C[C@H](NC(=O)C1(NCCOc2ccccc2)CCC1)c1ccc(C(=O)O)cc1 [Example 69, 4-[(1S)-1-[[1-(2-Phenoxyethylamino)cyclobutanecarbonyl]amino]ethyl]benzoic acid, hydrochloride] | < 1
C[C@H](NC(=O)C1(N(C)CCOc2ccccc2)CCCOC1)c1ccc(C(=O)O)cc1 (stereo partly drawn) [Example 73, 4-[(1S)-1-[[3-[Methyl(2-phenoxyethyl)amino]tetrahydropyran-3-carbonyl]amino]ethyl]benzoic acid, hydrochloride] | < 1
C[C@H](NC(=O)C1(N(C)CCOc2ccccc2)CCOC1)c1ccc(C(=O)O)cc1 (stereo partly drawn) [Example 74, 4-[(1S)-1-[[3-[Methyl(2-phenoxyethyl)amino]tetrahydrofuran-3-carbonyl]amino]ethyl]benzoic acid, hydrochloride] | < 0.1
C[C@H](NC(=O)C1(N(C)CCOc2cccc(Cl)c2)CCOC1)c1ccc(C(=O)O)cc1 (stereo partly drawn) [Example 75, 4-[(1S)-1-[[3-[2-(3-Chlorophenoxy)ethyl-methyl-amino]tetrahydrofuran-3-carbonyl]amino]ethyl]benzoic acid, hydrochloride] | < 0.1
CN(CCOc1ccccc1)C1(C(=O)NC2(c3ccc(C(=O)O)cc3)CC2)CCOC1 (stereo not drawn) [Example 76, 4-[1-[[3-[Methyl(2-phenoxyethyl)amino]tetrahydrofuran-3-carbonyl]amino]cyclopropyl]benzoic acid, hydrochloride] | < 1
CN(CCOc1cccc(Cl)c1)C1(C(=O)NC2(c3ccc(C(=O)O)cc3)CC2)CCOC1 (stereo not drawn) [Example 77, 4-[1-[[3-[2-(3-Chlorophenoxy)ethyl-methyl-amino]tetrahydrofuran-3-carbonyl]amino]cyclopropyl]benzoic acid, hydrochloride] | < 0.1
C[C@H](NC(=O)C1(CCCOc2ccccc2)CCOCC1)c1ccc(C(=O)O)cc1 [Example 81, 4-[(1S)-1-[[4-(3-Phenoxypropyl)tetrahydropyran-4-carbonyl]amino]ethy]benzoic Acid] | < 0.1
O=C(O)c1ccc(C2(NC(=O)C3(OCCOc4cccc(Cl)c4)CCOCC3)CC2)cc1 [Example 82, 4-[1-[[4-[2-(3-Chlorophenoxy)ethoxy]tetrahydropyran-4-carbonyl]amino]cyclopropyl]benzoic acid] | < 0.1
CCCC(C)COc1ccc(C2(C(=O)N[C@@H](C)c3ccc(C(=O)O)cc3)CCOCC2)cc1 (stereo partly drawn) [Example 84, 4-[(1S)-1-[[4-[4-(2-Methylpentoxy)phenyl]tetrahydropyran-4-carbonyl]amino]ethyl]benzoic acid] | < 1
C[C@H](NC(=O)C1(c2ccc(OCc3ccccc3)cc2)CCOCC1)c1ccc(C(=O)O)cc1 [Example 88, 4-[(1S)-1-[[4-(4-Benzyloxyphenyl)tetrahydropyran-4-carbonyl]amino]ethyl]benzoic acid] | < 1
C[C@H](NC(=O)C1(c2ccc(OCC3CCCCC3)cc2)CCOCC1)c1ccc(C(=O)O)cc1 [Example 89, 4-[(1S)-1-[[4-[4-(Cyclohexylmethoxy)phenyl]tetrahydropyran-4-carbonyl]amino]ethyl]benzoic acid] | < 1
C[C@H](NC(=O)C1(c2ccc(OCC(F)(F)F)cc2)CCOCC1)c1ccc(C(=O)O)cc1 [Example 91, 4-[(1S)-1-[[4-[4-(2,2,2-Trifluoroethoxy)phenyl]tetrahydropyran-4-carbonyl]amino]ethyl]benzoic acid] | < 1
C[C@H](NC(=O)C1(c2ccc(OCCCc3ccccc3)cc2)CCOCC1)c1ccc(C(=O)O)cc1 [Example 92, 4-[(1S)-1-[[4-[4-(3-Phenylpropoxy)phenyl]tetrahydropyran-4-carbonyl]amino]ethyl]benzoic acid] | < 0.1
C[C@H](NC(=O)C1(c2ccc(OCCc3ccccc3)cc2)CCOCC1)c1ccc(C(=O)O)cc1 [Example 94] | < 1
C[C@H](NC(=O)C1(c2ccc(OCCC3CCCCC3)cc2)CCOCC1)c1ccc(C(=O)O)cc1 [Example 95, 4-[(1S)-1-[[4-[4-(2-Cyclohexylethoxy)phenyl]tetrahydropyran-4-carbonyl]amino]ethyl]benzoic acid] | < 1
C[C@H](NC(=O)C1(c2ccc(OCc3cccnc3)cc2)CCOCC1)c1ccc(C(=O)O)cc1 [Example 96, 4-[(1S)-1-[[4-[4-(3-Pyridylmethoxy)phenyl]tetrahydropyran-4-carbonyl]amino]ethyl]benzoic acid] | < 1
C[C@H](NC(=O)C1(c2cccc(OCC3CCCCC3)c2)CCOCC1)c1ccc(C(=O)O)cc1 [Example 97, 4-[(1S)-1-[[4-[3-(Cyclohexylmethoxy)phenyl]tetrahydropyran-4-carbonyl]amino]ethyl]benzoic acid] | < 1
C[C@H](NC(=O)C1(c2cccc(OCC3CCOCC3)c2)CCOCC1)c1ccc(C(=O)O)cc1 [Example 98, 4-[(1S)-1-[[4-[3-(Tetrahydropyran-4-ylmethoxy)phenyl]tetrahydropyran-4-carbonyl]amino]ethyl]benzoic acid] | < 1
C[C@H](NC(=O)C1(c2cccc(OCc3ccccc3)c2)CCOCC1)c1ccc(C(=O)O)cc1 [Example 99, 4-[(1S)-1-[[4-(3-Benzyloxyphenyl)tetrahydropyran-4-carbonyl]amino]ethyl]benzoic acid] | < 1
C[C@H](NC(=O)C1(c2cccc(OC3CCCCC3)c2)CCOCC1)c1ccc(C(=O)O)cc1 [Example 100, 4-[(1S)-1-[[4-[3-(Cyclohexoxy)phenyl]tetrahydropyran-4-carbonyl]amino]ethyl]benzoic acid] | < 1
C[C@H](NC(=O)C1(c2cccc(OCC3CC3)c2)CCOCC1)c1ccc(C(=O)O)cc1 [Example 101, 4-[(1S)-1-[[4-[3-(Cyclopropylmethoxy)phenyl]tetrahydropyran-4-carbonyl]amino]ethyl]benzoic acid] | < 1
C[C@H](NC(=O)C1(c2cccc(OCC3CCCC3)c2)CCOCC1)c1ccc(C(=O)O)cc1 [Example 102, 4-[(1S)-1-[[4-[3-(Cyclopentylmethoxy)phenyl]tetrahydropyran-4-carbonyl]amino]ethyl]benzoic acid] | < 1
C[C@H](NC(=O)C1(c2cccc(OCC3CCCCCC3)c2)CCOCC1)c1ccc(C(=O)O)cc1 [Example 103, 4-[(1S)-1-[[4-[3-(Cycloheptylmethoxy)phenyl]tetrahydropyran-4-carbonyl]amino]ethyl]benzoic acid] | < 0.1
CC(C)CCOc1cccc(C2(C(=O)N[C@@H](C)c3ccc(C(=O)O)cc3)CCOCC2)c1 [Example 104, 4-[(1S)-1-[[4-(3-Isopentyloxyphenyl)tetrahydropyran-4-carbonyl]amino]ethyl]benzoic acid] | < 1
C[C@H](NC(=O)C1(c2cccc(OCCC3CCCCC3)c2)CCOCC1)c1ccc(C(=O)O)cc1 [Example 105, 4-[(1S)-1-[[4-[3-(2-Cyclohexylethoxy)phenyl]tetrahydropyran-4-carbonyl]amino]ethyl]benzoic acid] | < 1
C[C@H](NC(=O)C1(c2ccc(OCC3CCCCC3)cc2)CCCC1)c1ccc(C(=O)O)cc1 [Example 108, 4-[(1S)-1-[[1-[4-(Cyclohexylmethoxy)phenyl]cyclopentanecarbonyl]amino]ethyl]benzoic acid] | < 0.1
